These results are taken from ChEMBL document CHEMBL5727678, “CARM1 inhibitors and uses thereof” (2020).

pIC50: −log10 of the molar value.

As a reminder, the pIC50 is the negative decadic logarithm of the IC50, by convention in mol/L.

This assay can be described thus: Enzyme Assay: The assays were all performed in a buffer consisting of 20 mM Bicine (pH=7.6), 1 mM TCEP, 0.005% BSG, and 0.002% Tween 20, prepared on the day of use. Compounds in 100% DMSO (1 ul) were spotted into a polypropylene 384-well V-bottom plates using a Platemate Plus outfitted with a 384-channel head . DMSO (1 ul) was added to Columns 11, 12, 23, 24, rows A-H for the maximum signal control and 1 ul of SAH, a known product and inhibitor of CARM1, was added to columns 11, 12, 23, 24, rows I-P for the minimum signal control. A cocktail (40 ul) containing the CARM1 enzyme was added by Multidrop Combi. The compounds were allowed to incubate with CARM1 for 30 min at room temperature, then a cocktail (10 ul) containing 3H-SAM and peptide was added to initiate the reaction (final volume=51 ul). The final concentrations of the components were as follows: CARM1 was 0.25 nM, 3H-SAM was 30 nM, peptide was 250 nM, SAH in the minimum signal control wells was 1 mM, and the DMSO concentration was 2%. The assays were stopped by the addition of non-radiolabeled SAM (10 ul) to a final concentration of 300 uM, which dilutes the 3H-SAM to a level where its incorporation into the peptide substrate is no longer detectable. 50 ul of the reaction in the 384-well polypropylene plate was then transferred to a 384-well Flashplate and the biotinylated peptides were allowed to bind to the streptavidin surface for at least 1 hour before being washed once with 0.1% Tween20 in a Biotek ELx405 plate washer.

For the molecule `CNC[C@@H](O)COc1ccc(Cl)c(-c2nc(-c3c(C)noc3C)c(C)c(N3Cc4c(C)nn(C)c4C3)n2)c1`, the pIC50 was greater than 7.00.
In the case of `CNCC(O)COc1cccc(-c2nc(-c3c(C)noc3C)cc(N3C[C@@H]4C[C@H]3CN4C(=O)OC)n2)c1` (stereo partly drawn) it was greater than 7.00; in that of `CNCC(O)COc1cccc(-c2nc(-c3c(C)noc3C)c(C)c(N3CCO[C@H](CNC)C3)n2)c1` (stereo partly drawn), greater than 7.00.
